Read-outs that look alike come from different tables or passages of the source.
Experiments:
[1] = molecular target: T1, angiotensin II type 1 receptor (Oryctolagus cuniculus, UniProt P34976); assay: Angiotensin II antagonistic activity in isolated rabbit blood vessels; conditions: angiotensin II (10 nM)-induced contraction of rabbit thoracic aorta ring
T1 construct: By using a specimen of isolated rabbit blood vessels; from tissue; host or cells: rabbit thoracic aorta ring (New Zealand White, male)
T1 sequence (P34976 1-359): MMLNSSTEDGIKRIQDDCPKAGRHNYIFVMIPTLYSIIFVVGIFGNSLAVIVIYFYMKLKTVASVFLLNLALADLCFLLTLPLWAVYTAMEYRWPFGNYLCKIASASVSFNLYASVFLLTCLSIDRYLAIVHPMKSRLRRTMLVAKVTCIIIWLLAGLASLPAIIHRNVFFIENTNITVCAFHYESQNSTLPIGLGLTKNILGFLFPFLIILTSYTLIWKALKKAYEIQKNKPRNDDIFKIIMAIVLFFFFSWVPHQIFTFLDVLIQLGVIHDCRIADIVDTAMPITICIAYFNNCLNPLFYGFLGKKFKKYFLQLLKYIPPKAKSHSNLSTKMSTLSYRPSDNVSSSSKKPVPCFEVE
Method: By using a specimen of isolated rabbit blood vessels, antagonistic activity of the compounds of the invention against angiotensin II type 1 receptor was estimated from a dose-response curve of angiotensin II-induced blood vessel contraction.
During the measurement, the inside temperature of the magnus bath was maintained at 37° C. and the bath was continuously ventilated with a sufficient amount of mixed gas (95% O2 and 5% CO2). The angiotensin II-induced contraction was converted into a relative value (%) that is based on the angiotensin II (10 nM)-induced contraction in the absence of the compounds of each example. From the concentration-response curve obtained therefrom, 50% inhibition concentration (IC50 value) was calculated by using SAS Preclinical Package Ver5.0 (trade name, manufactured by SAS institute Japan Co., Tokyo, Japan), which is a statistical analysis program.

human PPARγ2 = molecular target: T2, human PPARγ2 (Homo sapiens, UniProt P37231); assay: PPARγ activation activity, Gal4 chimera luciferase transfection assay using COS7 cells; format: cell-based; conditions: for EC50: Gal4-human PPARγ2 LBD chimera, luciferase reporter, 16 hours; for Emax: COS-7, 16 h, maximum activity strength relative to the maximum activity of rosiglitazone, read-out: % MAX vs Rosiglitazone; for maximum activity compared with telmisartan: maximum PPARγ activity, telmisartan 30 to 50% of rosiglitazone under the same condition
T2 construct: the amino acids 182 to 505 of human PPARγ2; expressed in transfected cells; host or cells: COS7 cells
T2 sequence (P37231 182-505): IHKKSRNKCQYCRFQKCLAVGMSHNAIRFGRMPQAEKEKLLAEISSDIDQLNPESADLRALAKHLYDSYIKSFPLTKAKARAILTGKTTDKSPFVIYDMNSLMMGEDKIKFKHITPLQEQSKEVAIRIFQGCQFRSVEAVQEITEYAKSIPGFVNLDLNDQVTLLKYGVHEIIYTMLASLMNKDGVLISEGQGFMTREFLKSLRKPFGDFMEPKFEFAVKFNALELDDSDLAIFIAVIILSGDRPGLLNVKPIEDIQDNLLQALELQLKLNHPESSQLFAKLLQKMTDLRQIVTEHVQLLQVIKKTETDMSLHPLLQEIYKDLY
T2 sequence (P04386 1-147 partner limits assumed): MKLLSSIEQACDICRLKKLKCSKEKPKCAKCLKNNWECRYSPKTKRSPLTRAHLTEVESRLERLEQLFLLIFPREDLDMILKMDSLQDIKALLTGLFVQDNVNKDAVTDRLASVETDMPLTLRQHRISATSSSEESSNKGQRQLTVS
Method: The agonistic activity of the compounds of the invention on PPARγ was measured based on the transfection assay using COS7 cells (DS Pharma Biomedical Co., Ltd., Osaka, Japan), which are the cell line derived from the kidney of the African green monkey. COS7 cells were cultured under 5% CO2 concentration, and DMEM medium containing 10% fetal bovine serum, glutamic acid, and antibiotics was used as a medium.
As an expression vector, a chimera in which DNA binding domain of Gal4, which is a yeast transcription factor, and ligand binding domain of human PPAR^γ2 are fused, i.e., a fused product between the amino acids 1 to 147 of Gal4 transcription factor and the amino acids 182 to 505 of human PPARγ2, was used. Furthermore, as a reporter vector, a firefly luciferase containing five copies of Gal4 recognition sequence in the promoter region was used. Plasmid transfection to the cells was performed according to a method which uses jetPEI (trade name, manufactured by Funakoshi Co., Ltd., Tokyo, Japan). Furthermore, β-galactosidase expression vector was employed as an internal standard.
After the transfection of the cells, the medium was replaced with a DMEM medium (containing 1% serum) added with the compound, and the cells were further cultured for 16 hours. After that, the luciferase activity and β-galactosidase activity in the cell lysis solution were measured.
For the present test, dimethyl sulfoxide (DMSO) was used for dissolution and dilution of the test compounds, and during the cell treatment, the DMSO concentration in DMEM medium (containing 1% serum) was adjusted to 0.1%. As a positive compound, rosiglitazone (trade name, manufactured by ALEXIS Corporation, Switzerland) was used. […] The 50% effective concentration of the test compound (EC50, 50% effect concentration) was calculated by using SAS Preclinical Package Ver5.0 (trade name, manufactured by SAS institute Japan Co., Tokyo, Japan), which is a statistical analysis program.

Row | SMILES | IC50 [1] [nM] | EC50 (human PPARγ2; COS7 cells, read-out: EC50) [nM] | Emax (human PPARγ2; COS7 cells) [%] | maximum activity compared with telmisartan (human PPARγ2) | EC50 (human PPARγ2; EC50, COS7 cells) [nM]
1 | CCCCc1nc(C)n(-c2ccc(C)cn2)c(=O)c1Cc1ccc(-c2ccccc2-c2nnn[nH]2)cc1 [Example 2, 5-{[2′-(1H-tetrazol-5-yl)biphenyl-4-yl]methyl}-6-butyl-2-methyl-3-(5-methylpyridin-2-yl)pyrimidin-4(3H)-one] | 84 | 4150 | 24.1 | – | –
2 | CCCCc1nc(C)n(-c2ccc(OC)cn2)c(=O)c1Cc1ccc(-c2ccccc2-c2nnn[nH]2)cc1 [Example 3, 5-{[2′-(1H-tetrazol-5-yl)biphenyl-4-yl]methyl}-6-butyl-3-(5-methoxypyridin-2-yl)-2-methylpyrimidin-4(3H)-one] | 18 | 3740 | – | – | –
3 | CCCCc1nc(C)n(-c2ncccc2F)c(=O)c1Cc1ccc(-c2ccccc2-c2nnn[nH]2)cc1 [Example 4, 5-{[2′-(1H-tetrazol-5-yl)biphenyl-4-yl]methyl}-6-butyl-3-(3-fluoropyridin-2-yl)-2-methylpyrimidin-4(3H)-one] | 60 | 1440 | – | – | –
4 | CCCCc1nc(C)n(-c2ccc(F)cn2)c(=O)c1Cc1ccc(-c2ccccc2-c2nnn[nH]2)cc1 [Example 5, 5-{[2′-(1H-tetrazol-5-yl)biphenyl-4-yl]methyl}-6-butyl-3-(5-fluoropyridin-2-yl)-2-methylpyrimidin-4(3H)-one] | 102 | 3660 | 27.6 | – | –
5 | CCCCc1nc(C)n(-c2ncccc2Cl)c(=O)c1Cc1ccc(-c2ccccc2-c2nnn[nH]2)cc1 [Example 6, 5-{[2′-(1H-tetrazol-5-yl)biphenyl-4-yl]methyl}-6-butyl-3-(3-chloropyridin-2-yl)-2-methylpyrimidin-4(3H)-one] | 24 | 1690 | 20.3 | – | –
6 | CCCCc1nc(C)n(-c2ccc(Cl)cn2)c(=O)c1Cc1ccc(-c2ccccc2-c2nnn[nH]2)cc1 [Example 7, 5-{[2′-(1H-tetrazol-5-yl)biphenyl-4-yl]methyl}-6-butyl-3-(5-chloropyridin-2-yl)-2-methylpyrimidin-4(3H)-one] | 431 | 1520 | 54.6 | the same or greater than that of telmisartan | –
7 | CCCCc1nc(C)n(-c2cccc(Br)n2)c(=O)c1Cc1ccc(-c2ccccc2-c2nnn[nH]2)cc1 [Example 8, 5-{[2′-(1H-tetrazol-5-yl)biphenyl-4-yl]methyl}-3-(6-bromopyridin-2-yl)-6-butyl-2-methylpyrimidin-4(3H)-one] | 395 | 880 | 27.7 | – | –
8 | CCCCc1nc(C)n(-c2cc(C(F)(F)F)ccn2)c(=O)c1Cc1ccc(-c2ccccc2-c2nnn[nH]2)cc1 [Example 10, 5-{[2′-(1H-tetrazol-5-yl)biphenyl-4-yl]methyl}-6-butyl-2-methyl-3-[4-(trifluoromethyl)pyridin-2-yl]pyrimidin-4(3H)-one] | 181 | 3890 | – | – | –
9 | CCCCc1nc(C)n(-c2ccc(C(F)(F)F)cn2)c(=O)c1Cc1ccc(-c2ccccc2-c2nnn[nH]2)cc1 [Example 11, 5-{[2′-(1H-tetrazol-5-yl)biphenyl-4-yl]methyl}-6-butyl-2-methyl-3-[5-(trifluoromethyl)pyridin-2-yl]pyrimidin-4(3H)-one] | 981 | 1300 | 48.6 | the same or greater than that of telmisartan | –
10 | CCCCc1nc(C)n(-c2ncc(C(F)(F)F)cc2Cl)c(=O)c1Cc1ccc(-c2ccccc2-c2nnn[nH]2)cc1 [Example 13, 5-{[2′-(1H-tetrazol-5-yl)biphenyl-4-yl]methyl}-6-butyl-3-[3-chloro-5-(trifluoromethyl)pyridin-2-yl]-2-methylpyrimidin-4(3H)-one] | 26 | 170 | – | – | –
11 | CCCCc1nc(C)n(-c2ncc(OCCCC(=O)NC(C)C)cn2)c(=O)c1Cc1ccc(-c2ccccc2-c2nnn[nH]2)cc1 [Example 51, 4-{2-{5-{[2′-(1H-tetrazol-5-yl)biphenyl-4-yl]methyl}-4-butyl-2-methyl-6-oxopyrimidin-1(6H)-yl}pyrimidin-5-yloxy}-N-isopropylbutanamide] | 5.8 | – | – | – | –
12 | CCCCc1nc(C)n(-c2ncc(OCCCCC(N)=O)cn2)c(=O)c1Cc1ccc(-c2ccccc2-c2nnn[nH]2)cc1 [Example 53, 5-{2-{5-{[2′-(1H-tetrazol-5-yl)biphenyl-4-yl]methyl}-4-butyl-2-methyl-6-oxopyrimidin-1(6H)-yl}pyrimidin-5-yloxy}pentanamide] | 8.5 | – | – | – | –
13 | CCCCc1nc(C)n(-c2ncc(OCCCCC(=O)NCC)cn2)c(=O)c1Cc1ccc(-c2ccccc2-c2nnn[nH]2)cc1 [Example 54, 5-{2-{5-{[2′-(1H-tetrazol-5-yl)biphenyl-4-yl]methyl}-4-butyl-2-methyl-6-oxopyrimidin-1(6H)-yl}pyrimidin-5-yloxy}-N-ethylpentanamide] | 25 | – | – | – | –
14 | CCCCc1nc(C)n(-c2ncc(OCCCCC(=O)N(CC)CC)cn2)c(=O)c1Cc1ccc(-c2ccccc2-c2nnn[nH]2)cc1 [Example 55, 5-{2-{5-{[2′-(1H-tetrazol-5-yl)biphenyl-4-yl]methyl}-4-butyl-2-methyl-6-oxopyrimidin-1(6H)-yl}pyrimidin-5-yloxy}-N,N-diethylpentanamide] | < 100 | – | – | – | –
15 | CCCCc1nc(C)n(-c2ncc(OCCCNC(C)=O)cn2)c(=O)c1Cc1ccc(-c2ccccc2-c2nnn[nH]2)cc1 [Example 56, N-{3-{2-{5-{[2′-(1H-tetrazol-5-yl)biphenyl-4-yl]methyl}-4-butyl-2-methyl-6-oxopyrimidin-1 (6H)-yl}pyrimidin-5-yloxy}propyl}acetamide] | 2.4 | – | – | – | –
16 | CCCCc1nc(C)n(-c2ncc(OCCCNS(C)(=O)=O)cn2)c(=O)c1Cc1ccc(-c2ccccc2-c2nnn[nH]2)cc1 [Example 57, N-{3-{2-{5-{[2′-(1H-tetrazol-5-yl)biphenyl-4-yl]methyl}-4-butyl-2-methyl-6-oxopyrimidin-1(6H)-yl}pyrimidin-5-yloxy}propyl}methane sulfonamide] | 3.6 | – | – | – | –
17 | CCCCc1nc(C)n(-c2cnccn2)c(=O)c1Cc1ccc(-c2ccccc2-c2nnn[nH]2)cc1 [Example 60, 5-{[2′-(1H-tetrazol-5-yl)biphenyl-4-yl]methyl}-6-butyl-2-methyl-3-(pyrazin-2-yl)pyrimidin-4 (3H)-one] | 8.1 | – | – | – | –
18 | CCCCc1nc(C)n(-c2nnc(C)c(C)n2)c(=O)c1Cc1ccc(-c2ccccc2-c2nnn[nH]2)cc1 [Example 61, 5-{[2′-(1H-tetrazol-5-yl)biphenyl-4-yl]methyl}-6-butyl-3-(5,6-dimethyl-1,2,4-triazin-3-yl)-2-methylpyrimidin-4 (3H)-one] | 25 | – | – | – | –
19 | CCCCc1nc(C)n(-c2ncn(C)n2)c(=O)c1Cc1ccc(-c2ccccc2-c2nnn[nH]2)cc1 [Example 65, 5-{[2′-(1H-tetrazol-5-yl)biphenyl-4-yl]methyl}-6-butyl-2-methyl-3-(1-methyl-1H-1,2,4-triazol-3-yl)pyrimidin-4 (3H)-one] | 23 | – | – | – | –
20 | CCCCc1nc(C)n(-c2nc3ccccc3s2)c(=O)c1Cc1ccc(-c2ccccc2-c2nnn[nH]2)cc1 [Example 70, 5-{[2′-(1H-tetrazol-5-yl)biphenyl-4-yl]methyl}-3-(benzothiazol-2-v1)-6-butyl-2-methylpyrimidin-4 (3H)-one] | – | 690 | 39.7 | the same or greater than that of telmisartan | –
21 | CCCc1nc2c(C)cc(-c3nc4ccccc4n3C)cc2n1Cc1ccc(-c2ccccc2C(=O)O)cc1 [telmisartan, reference compound] | – | – | 30 to 50 | – | 1000 to 5000
